The values below come from ChEMBL document CHEMBL1130324, “Exceptionally potent antispermatogenic compounds from 8-halogenation of (4aRS,5SR,9bRS)-hexahydroindeno-[1,2-c]pyridines” (1997).

Common to all, as to assay type: functional
The test system of assay [1] is Mus musculus. The experiment in a line: Spermatogenic index (percent change from vehicle control) was calculated in Adult Male Swiss Mice at 20 (umol/kg) dose.
Assay [2] deals with Mus musculus. The assay can be described thus: Spermatogenic index (percent change from vehicle control) was calculated in Adult Male Swiss Mice at 2 (umol/kg) dose.
Assay [3] has as its system Mus musculus. The experiment in a line: Spermatogenic index (percent change from vehicle control) was calculated in Adult Male Swiss Mice at 6 (umol/kg) dose.
Assay [4] concerns Mus musculus. The assay can be described thus: Spermatogenic index (percent change from vehicle control) was calculated in Adult Male Swiss Mice at 25 (umol/kg) dose.
Assay [5] has as its system Mus musculus. The assay can be described thus: Spermatogenic index (percent change from vehicle control) was calculated in Adult Male Swiss Mice at 7 (umol/kg) dose.
The test system of assay [6] is Mus musculus. The experiment in a line: Spermatogenic index (percent change from vehicle control) was calculated in Adult Male Swiss Mice at 8 (umol/kg) dose.
In assay [7] the test system is Mus musculus. The experiment in a line: Spermatogenic index (percent change from vehicle control) was calculated in Adult Male Swiss Mice at 3 (umol/kg) dose.
Assay [8] relates to Mus musculus. The experiment in a line: Spermatogenic index (percent change from vehicle control) was calculated in Adult Male Swiss Mice at 75 (umol/kg) dose.
For assay [9], the system named is Mus musculus. The assay can be described thus: Spermatogenic index (percent change from vehicle control) was calculated in Adult Male Swiss Mice at 21 (umol/kg) dose.
For assay [10], the system named is Mus musculus. The assay can be described thus: Spermatogenic index (percent change from vehicle control) was calculated in Adult Male Swiss Mice at 62 (umol/kg) dose.
In assay [11] the test system is Mus musculus. The assay can be described thus: Spermatogenic index (percent change from vehicle control) was calculated in Adult Male Swiss Mice 79 (umol/kg) dose.
In assay [12] the test system is Mus musculus. The assay can be described thus: Spermatogenic index (percent change from vehicle control) was calculated in Adult Male Swiss Mice at 26 (umol/kg) dose.
The test system of assay [13] is Mus musculus. The assay can be described thus: Spermatogenic index (percent change from vehicle control) was calculated in Adult Male Swiss Mice at 0.6 (umol/kg) dose.
Assay [14] relates to Mus musculus. The assay can be described thus: Spermatogenic index (percent change from vehicle control) was calculated in Adult Male Swiss Mice at 19 (umol/kg) dose.

Each structure is given as a SMILES string.

As for `CCN1CC[C@H]2[C@H](c3ccc(C(=O)O)cc3)c3cc(C)c(I)cc3[C@H]2C1`, the values for the SI in assay [1], in assay [2] and in assay [3] were -76%, -67% and -66%, respectively.

On to `CCN1CC[C@H]2[C@H](c3ccc(C(=O)O)cc3)c3cc(C)c(Cl)cc3[C@H]2C1`, for which the SI was -72% in assay [4], -55% in assay [2] and -66% in [5].

For `CCN1CC[C@H]2[C@H](c3ccc(C(=O)OC)cc3)c3cc(C)ccc3[C@H]2C1`, the SI in [4] is recorded as -33%; in [6], -2%; in assay [7], 3%; in [8], -64%.

For the compound `CCN1CC[C@H]2[C@H](c3ccc(C(=O)O)cc3)c3cc(C)c(Br)cc3[C@H]2C1`, the SI is listed as -71% in assay [9], -69% in assay [3] and -72% in assay [10].

`CCN1CC[C@H]2[C@H](c3ccc(C(=O)O)cc3)c3cc(C)ccc3[C@H]2C1`: the SI is -52% in [11] and -24% in assay [12].

For `CCN1CC[C@H]2[C@H](c3ccc(C(=O)OC)cc3)c3cc(C)c(I)cc3[C@H]2C1` (stereo in doubt; 2b), the results for the SI in [1], in [2] and in assay [3] were -74%, -57% and -69%, respectively.

Turning to `CCN1CC[C@H]2[C@H](c3ccc(C(=O)OC)cc3)c3cc(C)c(I)cc3[C@H]2C1` (stereo in doubt; (l)-2b), the SI in [2] is listed as -66%; in assay [3], -71%; in [13] it was -34%; in [14], -72%.
